Article PMC6882900, “Pharmacokinetics of Micafungin in Critically Ill Patients” (Scientific Reports, 2019)
Converted amounts (≈) assume the structure as drawn. Numbered stars: 1 amine (or outer) side, 2 acyl side, 3 side chain; on linkers, the order of the positions; unused ones are H or OH. Bridge positions count the residues as written; N and C are the ends. Square brackets hold non-standard residues; d marks the D form. Peptide text beside a SMILES is read from it. * marks the point of attachment. hTyr(3S-OH,4S-OH,3'-OSO3H) = N[C@H](C(=O)O)[C@H](O)[C@@H](O)c1ccc(O)c(OS(=O)(=O)O)c1; Orn(4R-OH,5R-OH) = O=C([C@H](C[C@@H](O)[C@@H](O)N[*:3])N[*:1])[*:2]; Pro(3S-OH,4S-Me) = C[C@H]1CN[C@H](C(=O)O)[C@H]1O; X1 = CCCCCOc1ccc(-c2cc(-c3ccc(C(=O)*)cc3)no2)cc1; Gln(3R-OH) = NC(=O)C[C@@H](O)[C@H](N)C(=O)O; Hyp = O=C(O)[C@@H]1C[C@@H](O)CN1

What was measured:
[1] = system: C. glabrata; assay: Pharmacodynamic target evaluation (AUC/MIC) in the study population; format: in vivo, Candida glabrata; conditions: fixed dose 100 mg once daily, post-hoc AUC 0-24 h per patient and day
Source text: (§1) The European Committee on Antimicrobial Susceptibility Testing (EUCAST) established the guideline for micafungin and Candida ssp. with species related clinical breakpoints for non-resistant strains. These breakpoints were used as surrogate for the minimal inhibitory concentration (MIC) for C. albicans, C. glabrata and C. parapsilosis. Proposed MICs are […], respectively.
(§2) Using the previously established population pharmacokinetic model, the AUC for each patient on each day of therapy was determined.

[2] = system: C. glabrata; parameters: method as in EUCAST; conditions: ref EUCAST; cited from earlier work
[3] = Population pharmacokinetic modelling of micafungin in critically ill patients (NONMEM, plasma samples); format: in vivo, human
Source text: This is a non-interventional study conducted in critically ill adult patients treated in the intensive care units of the Department of Anaesthesiology, Intensive Care Medicine and Pain Therapy of the University Hospital Muenster in Germany. The collection of data and blood samples was approved by the ethics committee of the University of Muenster (Study Code 06-AnIt-11). […] Written informed consent was obtained from all patients or their representatives.
The study included 36 adult patients. Patient demographics and other clinical parameters were collected from the electronic patient charts of the intensive care unit. All patients received 100 mg micafungin intravenously once daily either as empiric or targeted therapy of suspected or proven infection. The decision to begin or end therapy was made by the physicians in charge of the intensive care units irrespective of the pharmacologic study.
Blood samples were collected from indwelling arterial catheters for analysis of micafungin concentrations. On day 1, plasma micafungin concentration was determined at 1, 4, 8, 12, 16 and 20 hours post application and as a trough level immediately before the next dose of micafungin after 24 hours. From day two of therapy, peak levels one hour after infusion and trough levels were collected.
Blood samples were exclusively taken from arterial lines into ethylenediaminetetraacetic acid (EDTA)-containing sample vials tubes (S-Monovette® 2.7 ml K3E, Sarstedt, Nümbrecht, Germany). Samples were immediately transported to the in-house laboratory and plasma was separated by centrifugation at 1600 x g (10 min) and kept and frozen at −80 °C until analysis.
Micafungin in human plasma was analyzed with reversed-phase high-performance liquid chromatography. 200 µl serum, 20 µl internal standard solution (anidulafungin 1 mg/ml in water), 20 µl 30% ZnSO4 x7H2O (w/v) in water and 700 µl methanol were vortex-mixed (5 sec) followed by centrifugation at 800 g for 3 min. 50 µl of the supernatant was injected on a 125 liquid chromatograph (Beckman Coulter GmbH, Krefeld, Germany) interfaced with a model 168 diode array detector. Chromatographic conditions: mobile phase: acetonitrile/50 mM ammonium acetate buffer pH 4.6, 50:50 (v/v); flow rate 1 ml/min at 45 °C; absorbance detection 271 nm; column: XTerra RP18, 3.5 µm, 150 × 4.6 mm (Waters GmbH, Eschborn, Germany).
Model building was performed using NONMEM (Version 7.3; ICON Development Solutions, Ellicott City, MD) with the ADVAN 6 subroutine and the FOCE + I estimation method. Visual predictive checks (pcVPC) and stepwise covariate model building (SCM) were performed with the PsN module (Version 4.6.0)[25]. Graphical output was created in R (version 3.4.0; R foundation for statistical computing, Vienna, Austria) with additional use of the Xpose package (version 4.5.3)[26].
The basic structural model was tested with the following compositions: One to three compartments with linear clearance, nonlinear (Michaelis Menten) clearance and a combination of both were tested.
As categorical covariate, sex was tested. Covariate influence was tested on central and peripheral volumes of distribution, and clearance. Covariate testing was performed using stepwise covariate modelling (SCM) in PsN with a 5% forward inclusion and 1% backward elimination criterion.

[4] = system: C. albicans; assay: Pharmacodynamic target evaluation (AUC/MIC) in the study population; format: in vivo, Candida albicans; conditions: fixed dose 100 mg once daily, post-hoc AUC 0-24 h per patient and day
Source text: as §1, §2

[5] = system: C. parapsilosis; parameters: method as in EUCAST; conditions: ref EUCAST; cited from earlier work
[6] = system: C. albicans; parameters: method as in EUCAST; conditions: ref EUCAST; cited from earlier work
[7] = system: C. parapsilosis; assay: Pharmacodynamic target evaluation (AUC/MIC) in the study population; format: in vivo, Candida parapsilosis; conditions: fixed dose 100 mg once daily, post-hoc AUC 0-24 h per patient and day
Source text: as §1, §2

[8] = system: C. albicans; conditions: non-resistant strains; cited from earlier work
Source text: as §1

[9] = system: C. parapsilosis; conditions: non-resistant strains; cited from earlier work
Source text: as §1

[10] = system: albumin; conditions: primary binding protein is albumin; cited from earlier work
Procedure: (§3) Micafungin has a small volume of distribution (~119 ml/kg) and the drug is highly protein bound (>99%). The primary binding protein is albumin. […] The pharmacokinetics and pharmacodynamics of micaf ...

[11] = cited from earlier work
Procedure: as §3

[12] = final population PK model estimate, 36 critically ill adult patients, 100 mg i.v. once daily

## CCCCCOc1ccc(-c2cc(-c3ccc(C(=O)N[C@H]4C[C@@H](O)[C@@H](O)NC(=O)[C@@H]5[C@@H](O)[C@@H](C)CN5C(=O)[C@H]([C@H](O)CC(N)=O)NC(=O)[C@H]([C@H](O)[C@@H](O)c5ccc(O)c(OS(=O)(=O)O)c5)NC(=O)[C@@H]5C[C@@H](O)CN5C(=O)[C@H]([C@@H](C)O)NC4=O)cc3)no2)cc1 [micafungin] (X1-[Orn(4R-OH,5R-OH)]T[Hyp][hTyr(3S-OH,4S-OH,3'-OSO3H)][Gln(3R-OH)][Pro(3S-OH,4S-Me)]; lactam 1-C)
[1]
  Adequacy of AUC/MIC ratio against EUCAST breakpoint: adequate therapy intensities
[2]
  AUC/MIC target to reach stasis: 1283
[3]; CVVHDF, SLEDD, clearance and volumes of distribution
  Influence of renal replacement therapy on pharmacokinetics: did not alter the pharmacokinetics
[3]; categorical covariate effect, SOFA >10 vs less critically ill patients
  Lower central volume of distribution in patients with SOFA >10: 30.8%
[3]; categorical covariate effect, bilirubin >4 mg/dl
  Lower clearance in patients with bilirubin >4 mg/dl: 21.1%
[3]; [12]
  Central volume of distribution: 16.2 L
  Inter-compartmental clearance: 14.4 L/h
  Peripheral volume of distribution: 13.8 L
[3]; human, iv, final population PK model estimate (two compartments, linear elimination), 36 critically ill adult patients, 100 mg i.v. once daily, plasma, HPLC-UV
  clearance: 26 mL/min
[3]; up to 10 days of treatment, 100 mg i.v. once daily
  Accumulation of micafungin in plasma: No accumulation
[4]
  Adequacy of AUC/MIC ratio against EUCAST breakpoint: adequate therapy intensities
[5]
  AUC/MIC target to reach stasis: 285
[6]
  AUC/MIC target to reach stasis: 2420
[7]
  Adequacy of AUC/MIC ratio against EUCAST breakpoint: does not seem suitable
[8]
  MIC (EUCAST breakpoint as surrogate): 16 µg/mL (≈ 12.6 µM)
[9]
  MIC (EUCAST breakpoint as surrogate): 2000 µg/mL (≈ 1570 µM)
[10]
  Protein bound: > 99%
[11]
  Volume of distribution: ~ 119 ml/kg
[11]; daily doses between 12.5 mg and 200 mg as well as 3 mg/kg and 8 mg/kg
  Linearity of pharmacokinetics: Linear pharmacokinetics
